Columns and labels:
in vitro = settings: PAMPA, pH 6.5
[1] = pampa, pH 6.5, 2 h, 50 µM
[2] = Stability in Wistar rat blood assessed as parent compound remaining at 1 ug/ml after 1 hr by LC-MS/MS analysis; format: ADME, tissue-based; settings: read-out: Stability
[3] = Solubility of the compound; format: physicochemical
[4] = Metabolic stability in liver microsomes (unknown origin); format: ADME
[5] = Total clearance in Wistar rat plasma at 1 mg/kg, iv by LC-MS/MS analysis; format: ADME, organism-based
[6] = Oral bioavailability in Wistar rat plasma at 1 mg/kg by LC-MS/MS analysis; format: ADME, organism-based
[7] = Volume of distribution at steady state in Wistar rat plasma at 1 mg/kg, iv by LC-MS/MS analysis; format: ADME, organism-based; settings: read-out: Vdss
[8] = AUC (0 to 24 hrs) in Wistar rat plasma at 1 mg/kg, iv by LC-MS/MS analysis; format: ADME, organism-based; set-up: time < 24 hr, dose 1 mg/kg, route intravenous
[9] = AUC (0 to 24 hrs) in Wistar rat plasma at 1 mg/kg, po by LC-MS/MS analysis; format: ADME, organism-based; set-up: dose 1 mg/kg, time < 24 hr, route oral
[10] = Cmax in Wistar rat plasma at 1 mg/kg, po by LC-MS/MS analysis; format: ADME, organism-based; set-up: dose 1 mg/kg, route oral
[11] = Half life in Wistar rat plasma at 1 mg/kg, iv by LC-MS/MS analysis; format: ADME, organism-based
[12] = Half life in Wistar rat plasma at 1 mg/kg, po by LC-MS/MS analysis; format: ADME, organism-based

**Q.** With `CCNC(=O)c1ccc(-c2cccc(CN(C)C(=O)CN)c2)cc1.Cl` as the compound, how does the Papp at 2 h, 50 µM (in vitro) read?
**A.** The Papp at 2 h, 50 µM was under 0.2 ×10⁻⁶ cm/s.

**Q.** With `Cl.NCC(=O)NCc1cccc(-c2ccccc2)c1` as the compound, how does the Peff [1] read?
**A.** The Peff was “Permeable”.

**Q.** What about the remaining at 1 h, 1 ug/ml [2] of the same compound?
**A.** Its remaining at 1 h, 1 ug/ml is 33%.

**Q.** What about the solubility [3] of the same compound?
**A.** The solubility was “Soluble”.

**Q.** What about the Stability [4] of the same compound?
**A.** Its Stability is “Stable”.

**Q.** With `CCN(CC)C(=O)c1ccc(-c2cccc(CN(C)C(=O)CN)c2)cc1.O=C(O)C(=O)O` as the compound, how does the Papp at 2 h, 50 µM (in vitro) read?
**A.** The Papp at 2 h, 50 µM was 3.8 ×10⁻⁶ cm/s.

**Q.** For `CN(Cc1cccc(-c2ccc(N3CCOCC3)cc2)c1)C(=O)CN.O=C(O)C(=O)O`, which clearance [5] is on record?
**A.** Its clearance is 134 mL/min/kg.

**Q.** And the bioavailability [6]?
**A.** The bioavailability was 54.9%.

**Q.** And the Vd [7]?
**A.** The Vd was 6.06 L/kg.

**Q.** And the AUC(0-t) at 24 h [8]?
**A.** Its AUC(0-t) at 24 h is 127 ng·h/mL.

**Q.** And the AUC(0-t) at 24 h [9]?
**A.** The AUC(0-t) at 24 h was 69.6 ng·h/mL.

**Q.** And the Cmax [10]?
**A.** Its Cmax is 73.4 ng/mL.

**Q.** And the half-life [11]?
**A.** Its half-life is 28.2 min.

**Q.** And the half-life [12]?
**A.** Its half-life is 34.8 min.

**Q.** What about the Papp at 2 h, 50 µM (in vitro) of the same compound?
**A.** Its Papp at 2 h, 50 µM is 22.1 ×10⁻⁶ cm/s.

Reference: ChEMBL document CHEMBL3870326, “Synthesis and structure activity relationships of glycine amide derivatives as novel Vascular Adhesion Protein-1 inhibitors” (Bioorg Med Chem, 2017)
